Test results from US20080176936A1, “Classes of Compounds that Interact with Integrins” (priority 2005, published 2008).

Legend:
[1] = biological target: T1, αllbβ3 integrin (Homo sapiens, UniProt P05106+P08514); test: ELISA: inhibition of binding of αllbβ3 integrin membrane preparation to coated extracellular matrix protein; conditions: human platelet membrane preparation
T1 construct: Human platelet membrane preparations were used as a source of αllbβ3 integrin; from tissue; host or cells: human platelets (membrane preparation)
T1 sequence (P08514 32-887 limits assumed): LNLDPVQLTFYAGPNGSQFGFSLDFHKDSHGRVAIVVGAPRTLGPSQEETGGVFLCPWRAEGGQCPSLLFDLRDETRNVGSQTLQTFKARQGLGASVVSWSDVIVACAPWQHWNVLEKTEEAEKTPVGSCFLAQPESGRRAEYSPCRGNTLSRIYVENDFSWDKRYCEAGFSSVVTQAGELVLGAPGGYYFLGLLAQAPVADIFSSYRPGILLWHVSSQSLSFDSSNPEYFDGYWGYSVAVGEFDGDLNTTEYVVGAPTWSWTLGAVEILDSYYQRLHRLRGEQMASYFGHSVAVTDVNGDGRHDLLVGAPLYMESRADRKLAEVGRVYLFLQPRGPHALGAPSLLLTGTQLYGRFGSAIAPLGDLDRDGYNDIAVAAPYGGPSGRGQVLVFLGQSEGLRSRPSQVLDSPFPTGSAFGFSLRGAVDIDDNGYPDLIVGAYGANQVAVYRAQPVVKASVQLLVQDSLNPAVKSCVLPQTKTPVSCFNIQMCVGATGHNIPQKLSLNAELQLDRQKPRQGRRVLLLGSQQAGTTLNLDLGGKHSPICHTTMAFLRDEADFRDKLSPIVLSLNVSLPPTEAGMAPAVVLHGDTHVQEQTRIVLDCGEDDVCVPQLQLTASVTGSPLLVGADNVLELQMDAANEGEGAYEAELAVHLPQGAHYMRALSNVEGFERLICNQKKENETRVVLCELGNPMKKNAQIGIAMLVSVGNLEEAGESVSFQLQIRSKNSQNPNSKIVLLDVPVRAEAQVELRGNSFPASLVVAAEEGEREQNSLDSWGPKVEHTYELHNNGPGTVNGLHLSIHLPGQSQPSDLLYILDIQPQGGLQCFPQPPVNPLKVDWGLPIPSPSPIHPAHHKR
T1 sequence (P08514 891-1039 partner limits assumed): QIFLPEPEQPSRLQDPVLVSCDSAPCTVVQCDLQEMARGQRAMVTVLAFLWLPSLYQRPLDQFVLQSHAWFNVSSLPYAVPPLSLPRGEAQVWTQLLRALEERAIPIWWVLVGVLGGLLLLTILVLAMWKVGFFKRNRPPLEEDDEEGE
T1 sequence (P05106 27-788): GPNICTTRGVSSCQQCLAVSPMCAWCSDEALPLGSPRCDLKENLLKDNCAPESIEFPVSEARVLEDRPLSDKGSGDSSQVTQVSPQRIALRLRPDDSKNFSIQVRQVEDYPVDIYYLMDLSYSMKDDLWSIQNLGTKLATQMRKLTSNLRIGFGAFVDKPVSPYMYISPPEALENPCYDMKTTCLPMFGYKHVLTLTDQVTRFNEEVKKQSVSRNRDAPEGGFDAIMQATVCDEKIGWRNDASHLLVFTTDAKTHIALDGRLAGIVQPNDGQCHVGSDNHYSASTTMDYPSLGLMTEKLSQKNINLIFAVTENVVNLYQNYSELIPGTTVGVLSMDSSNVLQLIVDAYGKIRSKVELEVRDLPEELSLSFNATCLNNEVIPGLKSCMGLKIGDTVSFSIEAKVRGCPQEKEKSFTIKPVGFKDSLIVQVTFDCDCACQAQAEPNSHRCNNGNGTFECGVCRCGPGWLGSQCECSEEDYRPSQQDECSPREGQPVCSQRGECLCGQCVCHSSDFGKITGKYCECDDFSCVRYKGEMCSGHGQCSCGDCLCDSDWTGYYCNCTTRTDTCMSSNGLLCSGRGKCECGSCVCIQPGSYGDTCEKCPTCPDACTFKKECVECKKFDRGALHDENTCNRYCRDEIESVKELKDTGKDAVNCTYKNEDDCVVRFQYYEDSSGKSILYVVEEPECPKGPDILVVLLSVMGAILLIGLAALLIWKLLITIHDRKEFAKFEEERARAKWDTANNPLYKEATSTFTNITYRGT
Outline: (§1)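 Integrin sources were human platelet membrane preparations for αIIbβ3 and WM-115 cells for αVβ3, each preincubated with test compound. Binding to fibrinogen- or vitronectin-coated plates (10 µg/well) was quantified with an anti-integrin β3 antibody and an HRP-coupled secondary antibody using colorimetric detection.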

[2] = biological target: T2, αVβ3 integrin (Homo sapiens, UniProt P05106+P06756); test: ELISA: inhibition of binding of αVβ3 integrin (source WM-115 cell line) to coated extracellular matrix protein; conditions: WM-115 cell line as integrin source
T2 construct: the cell line WM-115 was used as a source of αVβ3 integrin; endogenous in cells; host or cells: WM-115 cell line
T2 sequence (P06756 31-889 limits assumed): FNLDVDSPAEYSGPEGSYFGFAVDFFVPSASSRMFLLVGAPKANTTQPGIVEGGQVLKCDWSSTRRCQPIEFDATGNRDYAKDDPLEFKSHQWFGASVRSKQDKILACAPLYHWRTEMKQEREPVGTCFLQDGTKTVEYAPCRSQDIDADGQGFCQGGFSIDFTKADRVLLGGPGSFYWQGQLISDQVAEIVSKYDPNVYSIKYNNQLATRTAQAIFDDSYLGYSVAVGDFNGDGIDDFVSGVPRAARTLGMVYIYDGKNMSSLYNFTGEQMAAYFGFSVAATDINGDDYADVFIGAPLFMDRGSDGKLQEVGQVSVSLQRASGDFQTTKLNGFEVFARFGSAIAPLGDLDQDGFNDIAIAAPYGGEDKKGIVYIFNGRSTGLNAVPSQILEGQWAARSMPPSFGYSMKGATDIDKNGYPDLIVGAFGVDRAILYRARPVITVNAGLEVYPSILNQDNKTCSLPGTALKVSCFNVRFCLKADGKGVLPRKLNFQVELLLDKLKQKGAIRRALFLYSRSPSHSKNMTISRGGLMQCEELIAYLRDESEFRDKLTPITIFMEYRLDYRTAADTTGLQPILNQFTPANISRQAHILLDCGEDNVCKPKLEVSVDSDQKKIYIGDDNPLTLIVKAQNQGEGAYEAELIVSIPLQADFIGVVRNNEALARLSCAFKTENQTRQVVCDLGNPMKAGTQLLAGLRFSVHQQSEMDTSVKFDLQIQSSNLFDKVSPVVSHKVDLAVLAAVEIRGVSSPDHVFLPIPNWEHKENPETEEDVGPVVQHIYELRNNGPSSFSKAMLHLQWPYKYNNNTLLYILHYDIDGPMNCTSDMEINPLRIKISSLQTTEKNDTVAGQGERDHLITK
T2 sequence (P06756 891-1048 partner limits assumed): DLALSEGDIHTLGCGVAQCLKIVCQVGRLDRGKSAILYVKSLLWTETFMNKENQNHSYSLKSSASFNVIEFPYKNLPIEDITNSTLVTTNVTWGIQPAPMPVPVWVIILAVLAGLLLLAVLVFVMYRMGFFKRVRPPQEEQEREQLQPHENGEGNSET
T2 sequence (P05106 27-788): as the sequence (P05106 27-788) above
Outline: as §1

| Compound | INHIBITION @ 250 uM RECEPTOR allBb3 SUBSTRATE FIBRINOGEN [1] | INHIBITION 250 uM RECEPTOR allBb3 SUBSTRATE VITRONECTIN [1] | INHIBITION 250 uM RECEPTOR aVb3 SUBSTRATE FIBRINOGEN [2] |
| --- | --- | --- | --- |
| CCC(=O)NC1C(OCc2ccccc2)OC(COCc2cccc(N)c2)C(O)C1OCc1ccc(C(=O)O)cc1 (single isomer, unassigned) [Compound 103] | ++ (61% to 80% inhibition at 250 micromolar) | +++ (81% to 100% inhibition at 250 micromolar) | +++ (81% to 100% inhibition at 250 micromolar) |
| CCC(=O)NC1C(OCc2ccccc2)OC(COCc2cccc(N)c2)C(O)C1OCc1ccc(C(=O)O)cc1 (single isomer, unassigned) [Compound 104] | − (0% to 35% inhibition at 250 micromolar) | +++ (81% to 100% inhibition at 250 micromolar) | − (0% to 35% inhibition at 250 micromolar) |
| COCC1OC(OCc2ccccc2)C(NC(=O)c2ccc(C(=O)O)cc2)C(OCc2cccc(N)c2)C1O (single isomer, unassigned) [Compound 105] | +++ (81% to 100% inhibition at 250 micromolar) | ++ (61% to 80% inhibition at 250 micromolar) | − (0% to 35% inhibition at 250 micromolar) |
| COCC1OC(OCc2ccccc2)C(NC(=O)c2ccc(C(=O)O)cc2)C(OCc2cccc(N)c2)C1O (single isomer, unassigned) [Compound 106] | + (36% to 60% inhibition at 250 micromolar) | +++ (81% to 100% inhibition at 250 micromolar) | − (0% to 35% inhibition at 250 micromolar) |
| CCOCC1OC(OCc2ccccc2)C(NC(=O)c2ccc(C(=O)O)cc2)C(OCc2cccc(N)c2)C1O (single isomer, unassigned) [Compound 107] | − (0% to 35% inhibition at 250 micromolar) | +++ (81% to 100% inhibition at 250 micromolar) | − (0% to 35% inhibition at 250 micromolar) |
| CCOCC1OC(OCc2ccccc2)C(NC(=O)c2ccc(C(=O)O)cc2)C(OCc2cccc(N)c2)C1O (single isomer, unassigned) [Compound 108] | − (0% to 35% inhibition at 250 micromolar) | +++ (81% to 100% inhibition at 250 micromolar) | − (0% to 35% inhibition at 250 micromolar) |
| Nc1cccc(COC2C(O)C(CO)OC(OCc3ccccc3)C2NC(=O)c2ccc(C(=O)O)cc2)c1 (single isomer, unassigned) [Compound 109] | − (0% to 35% inhibition at 250 micromolar) | +++ (81% to 100% inhibition at 250 micromolar) | − (0% to 35% inhibition at 250 micromolar) |
| CCC(=O)NC1C(OCc2ccccc2)OC(COCC(=O)O)C(O)C1OCc1cccc(N)c1 (single isomer, unassigned) [Compound 110] | − (0% to 35% inhibition at 250 micromolar) | +++ (81% to 100% inhibition at 250 micromolar) | − (0% to 35% inhibition at 250 micromolar) |
| CCC(=O)NC1C(OCc2ccccc2)OC(COCc2ccc(C(=O)O)cc2)C(O)C1OCc1cccc(N)c1 (single isomer, unassigned) [Compound 111] | − (0% to 35% inhibition at 250 micromolar) | +++ (81% to 100% inhibition at 250 micromolar) | − (0% to 35% inhibition at 250 micromolar) |
| CCC(=O)NC1C(OCc2ccccc2)OC(COCc2ccc(C(=O)O)cc2)C(O)C1OCc1cccc(N)c1 (single isomer, unassigned) [Compound 112] | − (0% to 35% inhibition at 250 micromolar) | +++ (81% to 100% inhibition at 250 micromolar) | +++ (81% to 100% inhibition at 250 micromolar) |
| CC(=O)NC1C(OCCNC(=N)N)OC(COCC(=O)O)C(O)C1OCc1ccccc1 (single isomer, unassigned) [Compound 113] | + (36% to 60% inhibition at 250 micromolar) | +++ (81% to 100% inhibition at 250 micromolar) | +++ (81% to 100% inhibition at 250 micromolar) |
